Source: patent US6495591B1, “Fungal efflux pump inhibitors” (Essential Therapeutics, Inc., priority 1997, dated 2002)
Like-named read-outs stand apart in the source and are kept apart here.

Experiments:
[1] = tested on: YEM 24 C. albicans ΔCDR1, ΔCDR2; assay: microbe, parasite or virus in culture; type: cell-based; conditions: YEM 24, 24 hrs, 80% inhibition; for MIC of compound in the presence of fluconazole (+): 1/8 × MIC of fluconazole
[2] = target: pCgCDR (ABC) efflux pump in S. cerevisiae YEM-39 (Candida glabrata, UniProt Q6FK23); assay: cell-based; type: cell-based, C. glabrata
pCgCDR (ABC) efflux pump in S. cerevisiae YEM-39, sequence (Q6FK23 whole entry): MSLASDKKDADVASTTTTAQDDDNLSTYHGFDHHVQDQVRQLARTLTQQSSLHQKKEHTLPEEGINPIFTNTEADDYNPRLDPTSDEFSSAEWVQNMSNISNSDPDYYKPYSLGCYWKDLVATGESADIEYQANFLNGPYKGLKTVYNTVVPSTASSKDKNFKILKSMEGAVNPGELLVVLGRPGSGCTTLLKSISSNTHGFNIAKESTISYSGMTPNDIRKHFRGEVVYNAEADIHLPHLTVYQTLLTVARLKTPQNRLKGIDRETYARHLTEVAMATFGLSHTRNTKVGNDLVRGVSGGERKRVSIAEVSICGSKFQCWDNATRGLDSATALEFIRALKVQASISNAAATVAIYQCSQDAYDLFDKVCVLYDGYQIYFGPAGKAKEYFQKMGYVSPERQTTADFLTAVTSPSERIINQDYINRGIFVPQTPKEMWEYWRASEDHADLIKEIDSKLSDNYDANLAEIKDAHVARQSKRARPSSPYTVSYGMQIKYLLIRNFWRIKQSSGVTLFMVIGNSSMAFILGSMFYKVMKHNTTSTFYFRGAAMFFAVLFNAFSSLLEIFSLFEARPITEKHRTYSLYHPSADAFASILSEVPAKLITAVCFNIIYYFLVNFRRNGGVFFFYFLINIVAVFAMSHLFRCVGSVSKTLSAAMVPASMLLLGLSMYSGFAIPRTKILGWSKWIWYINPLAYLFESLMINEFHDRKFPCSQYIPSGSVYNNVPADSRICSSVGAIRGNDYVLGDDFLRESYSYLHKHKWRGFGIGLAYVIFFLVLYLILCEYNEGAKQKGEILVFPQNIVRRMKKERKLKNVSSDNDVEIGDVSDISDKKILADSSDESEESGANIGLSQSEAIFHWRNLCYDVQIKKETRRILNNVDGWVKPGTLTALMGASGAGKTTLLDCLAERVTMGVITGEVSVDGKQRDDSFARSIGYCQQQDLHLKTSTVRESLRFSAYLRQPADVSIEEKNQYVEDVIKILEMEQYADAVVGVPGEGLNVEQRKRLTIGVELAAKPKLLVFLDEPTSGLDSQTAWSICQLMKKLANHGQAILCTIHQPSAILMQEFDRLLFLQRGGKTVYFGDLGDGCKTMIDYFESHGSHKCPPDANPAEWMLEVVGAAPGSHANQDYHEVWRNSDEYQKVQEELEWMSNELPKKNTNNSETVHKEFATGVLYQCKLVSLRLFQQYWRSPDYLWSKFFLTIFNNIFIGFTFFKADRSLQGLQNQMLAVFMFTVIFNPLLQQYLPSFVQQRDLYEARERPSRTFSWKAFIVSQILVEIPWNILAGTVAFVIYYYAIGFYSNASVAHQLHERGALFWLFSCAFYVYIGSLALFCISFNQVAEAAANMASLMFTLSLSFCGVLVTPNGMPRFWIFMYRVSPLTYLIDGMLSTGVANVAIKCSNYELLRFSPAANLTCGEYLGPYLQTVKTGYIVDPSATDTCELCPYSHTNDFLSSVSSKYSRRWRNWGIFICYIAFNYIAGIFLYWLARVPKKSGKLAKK

[3] = tested on: YEM 27 C. albicans ΔCDR1ΔCDR2 ΔBENΔFLU1; assay: microbe, parasite or virus in culture; type: cell-based; conditions: YEM 27, 24 hrs, 80% inhibition; for MIC of compound in the presence of fluconazole (+): 1/8 × MIC of fluconazole
Aspergillus fumigatus = assay: FEPI MICs in combination with 1/4 the azole's MIC (Table 12); type: cell-based; design: FEPI MIC (alone): unit not given here; conditions: for FEPI MIC with itraconazole, 60% Inh / FEPI MIC with itraconazole, 80% Inh: itraconazole 0.063 μg/ml (1/4 MIC); for FEPI MIC with ketoconazole, 60% Inh / FEPI MIC with ketoconazole, 80% Inh: ketoconazole 4 μg/ml (1/4 MIC); for FEPI MIC (alone): no azole, 35° C., CM Broth
Description: The combinations were tested against a series of Candida strain with known expression of efflux pumps or with complete deletion of all known pumps and Aspergillus fumigatus. Results are reported as minimum inhibitory concentration (MIC) of […] in the presence or absence of […]. A total of 27 distinct milbemycins were studied.

[4] = target: pCDRI (ABC) efflux pump in S. cerevisiae YEM-1 (Candida albicans, UniProt P43071); assay: cell-based; type: cell-based, C. albicans
[5] = tested on: YEM 15 C. albicans, CDR1CDR2 up; assay: microbe, parasite or virus in culture; type: cell-based; conditions: YEM 15, 24 hrs, 80% inhibition; for MIC of compound in the presence of fluconazole (+): 1/8 × MIC of fluconazole
[6] = target: pCDR2 (ABC) efflux pump in S. cerevisiae YEM-37 (Candida albicans, UniProt P78595); assay: cell-based; type: cell-based, C. albicans
pCDR2 (ABC) efflux pump in S. cerevisiae YEM-37, sequence (P78595 whole entry): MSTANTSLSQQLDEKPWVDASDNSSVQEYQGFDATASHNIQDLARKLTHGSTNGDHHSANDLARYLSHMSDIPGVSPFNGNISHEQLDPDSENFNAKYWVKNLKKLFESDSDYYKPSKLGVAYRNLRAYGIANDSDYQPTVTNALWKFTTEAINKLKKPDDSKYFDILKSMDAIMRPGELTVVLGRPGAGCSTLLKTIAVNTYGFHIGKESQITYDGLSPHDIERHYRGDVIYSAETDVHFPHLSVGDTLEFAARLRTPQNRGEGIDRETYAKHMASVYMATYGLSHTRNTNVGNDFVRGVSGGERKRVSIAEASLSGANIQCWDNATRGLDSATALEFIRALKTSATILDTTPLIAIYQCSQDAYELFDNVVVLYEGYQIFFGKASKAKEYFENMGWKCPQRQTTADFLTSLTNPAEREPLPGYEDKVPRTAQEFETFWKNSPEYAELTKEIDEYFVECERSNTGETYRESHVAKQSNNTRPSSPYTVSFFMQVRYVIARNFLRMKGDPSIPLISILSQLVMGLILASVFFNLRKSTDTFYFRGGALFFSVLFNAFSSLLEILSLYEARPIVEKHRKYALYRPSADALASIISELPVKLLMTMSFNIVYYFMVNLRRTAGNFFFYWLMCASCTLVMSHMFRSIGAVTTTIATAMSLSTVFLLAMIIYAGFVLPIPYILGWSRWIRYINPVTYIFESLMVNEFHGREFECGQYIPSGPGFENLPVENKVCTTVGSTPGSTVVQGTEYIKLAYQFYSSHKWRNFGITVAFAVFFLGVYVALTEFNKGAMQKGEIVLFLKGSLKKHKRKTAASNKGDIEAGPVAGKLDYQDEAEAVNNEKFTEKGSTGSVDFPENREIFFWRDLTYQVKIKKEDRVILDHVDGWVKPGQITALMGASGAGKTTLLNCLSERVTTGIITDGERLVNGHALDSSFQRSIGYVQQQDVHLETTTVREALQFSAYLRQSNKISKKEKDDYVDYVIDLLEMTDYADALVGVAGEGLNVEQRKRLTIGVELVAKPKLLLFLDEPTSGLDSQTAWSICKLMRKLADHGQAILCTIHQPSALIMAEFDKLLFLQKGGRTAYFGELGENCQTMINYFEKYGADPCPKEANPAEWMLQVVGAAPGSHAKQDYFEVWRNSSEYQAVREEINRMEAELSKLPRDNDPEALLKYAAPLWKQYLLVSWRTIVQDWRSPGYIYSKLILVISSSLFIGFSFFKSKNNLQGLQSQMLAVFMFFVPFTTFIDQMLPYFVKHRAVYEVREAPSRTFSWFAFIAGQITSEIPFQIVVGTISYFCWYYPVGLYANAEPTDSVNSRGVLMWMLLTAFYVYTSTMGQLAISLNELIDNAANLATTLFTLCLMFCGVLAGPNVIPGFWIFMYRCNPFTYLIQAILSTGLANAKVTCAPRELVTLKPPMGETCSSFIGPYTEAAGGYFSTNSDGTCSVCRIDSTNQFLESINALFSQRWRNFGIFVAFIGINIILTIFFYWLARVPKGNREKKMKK

[7] = target: pBEN (MF) efflux pump in S. cerevisiae YEM-2 (Candida albicans, UniProt P28873); assay: cell-based; type: cell-based, C. albicans
pBEN (MF) efflux pump in S. cerevisiae YEM-2, sequence (P28873 whole entry): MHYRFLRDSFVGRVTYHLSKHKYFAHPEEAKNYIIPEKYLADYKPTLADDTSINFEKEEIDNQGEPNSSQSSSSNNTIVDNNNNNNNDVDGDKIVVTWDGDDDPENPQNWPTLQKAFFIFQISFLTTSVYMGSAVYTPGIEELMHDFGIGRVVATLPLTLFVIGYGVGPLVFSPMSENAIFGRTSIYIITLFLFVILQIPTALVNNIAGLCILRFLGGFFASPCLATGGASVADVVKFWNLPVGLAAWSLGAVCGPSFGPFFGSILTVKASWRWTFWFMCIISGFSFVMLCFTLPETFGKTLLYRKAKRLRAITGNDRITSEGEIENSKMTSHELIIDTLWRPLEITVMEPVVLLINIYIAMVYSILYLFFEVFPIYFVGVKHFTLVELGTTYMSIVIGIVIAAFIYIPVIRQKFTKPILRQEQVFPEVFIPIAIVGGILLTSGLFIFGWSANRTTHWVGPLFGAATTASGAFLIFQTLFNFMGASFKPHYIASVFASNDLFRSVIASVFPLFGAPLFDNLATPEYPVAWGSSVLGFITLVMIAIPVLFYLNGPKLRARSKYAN

YEM 51 C. glabrata wt = assay: FEPI MIC with/without 1/8 fluconazole MIC at 24 hrs (Table 11); type: cell-based
[8] = tested on: YEM 13 C. albicans BEN up; assay: microbe, parasite or virus in culture; type: cell-based; conditions: YEM 13, 24 hrs, 80% inhibition; for MIC of compound in the presence of fluconazole (+): 1/8 × MIC of fluconazole
[9] = tested on: pCgBEN (MF) efflux pump in S. cerevisiae YEM-40; type: cell-based, C. glabrata
[10] = tested on: YEM 17 C. glabrata, CgCDR up; type: cell-based; conditions: 24 hrs, 80% inhibition; for MIC of compound in the presence of fluconazole (+): 1/8 × MIC of fluconazole
YEM 53 C. krusei = assay: FEPI MIC with/without 1/8 fluconazole MIC at 24 hrs (Table 11); type: cell-based
YEM 30 C. albicans wt = assay: as above; type: cell-based
[11] = target: pFLU (MF) efflux pump in S. cerevisiae YEM-38 (Candida albicans, UniProt G1UB37); assay: cell-based; type: cell-based, C. albicans
pFLU (MF) efflux pump in S. cerevisiae YEM-38, sequence (G1UB37 whole entry): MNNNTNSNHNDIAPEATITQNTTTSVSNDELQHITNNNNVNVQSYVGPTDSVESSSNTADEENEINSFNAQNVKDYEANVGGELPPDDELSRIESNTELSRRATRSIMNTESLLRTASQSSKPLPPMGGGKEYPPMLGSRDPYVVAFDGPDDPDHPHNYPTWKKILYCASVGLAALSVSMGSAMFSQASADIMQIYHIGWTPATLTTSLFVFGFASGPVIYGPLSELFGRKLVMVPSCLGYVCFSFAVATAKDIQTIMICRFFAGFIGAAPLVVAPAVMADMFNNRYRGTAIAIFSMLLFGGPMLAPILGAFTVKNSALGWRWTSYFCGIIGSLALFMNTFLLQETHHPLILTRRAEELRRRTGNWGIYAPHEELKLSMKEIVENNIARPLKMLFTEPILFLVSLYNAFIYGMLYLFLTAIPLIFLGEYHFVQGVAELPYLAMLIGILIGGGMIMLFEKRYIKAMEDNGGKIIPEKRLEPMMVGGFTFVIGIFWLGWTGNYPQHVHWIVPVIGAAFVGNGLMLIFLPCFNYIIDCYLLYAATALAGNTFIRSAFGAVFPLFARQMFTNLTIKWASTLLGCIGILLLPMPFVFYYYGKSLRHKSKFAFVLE

[12] = YEM-40 pCgBEN, fluconazole fixed at FLUhalf 2.8

| Molecule | MIC of compound in the presence of fluconazole (+) [1] [µg/mL] | MIC of compound in the absence of fluconazole (−) [1] [µg/mL] | IC50 [2] [µM] | MIC of compound in the presence of fluconazole (+) [3] [µg/mL] | MIC of compound in the absence of fluconazole (−) [3] [µg/mL] | FEPI MIC with fluconazole, 60% Inh (Aspergillus fumigatus) | FEPI MIC with itraconazole, 60% Inh (Aspergillus fumigatus; 60% inhibition) | FEPI MIC with itraconazole, 80% Inh (Aspergillus fumigatus; 80% inhibition) | FEPI MIC with ketoconazole, 60% Inh (Aspergillus fumigatus; 60% inhibition) | FEPI MIC with ketoconazole, 80% Inh (Aspergillus fumigatus; 80% inhibition) | FEPI MIC (alone) (Aspergillus fumigatus; 80% inhibition) | MIC of compound in the presence of fluconazole (+) [5] | MIC of compound in the absence of fluconazole (−) [5] [µg/mL] | MIC of compound in the absence of fluconazole (−) (YEM 51 C. glabrata wt; YEM 51, 24 hrs, 80% inhibition) [µg/mL] | MIC of compound in the presence of fluconazole (+) [8] [µg/mL] | MIC of compound in the absence of fluconazole (−) [8] [µg/mL] | MIC of compound in the presence of fluconazole (+) [10] [µg/mL] | MIC of compound in the absence of fluconazole (−) [10] [µg/mL] | MIC of compound in the absence of fluconazole (−) (YEM 53 C. krusei; YEM 53, 24 hrs, 80% inhibition) [µg/mL] | MIC of compound in the absence of fluconazole (−) (YEM 30 C. albicans wt; YEM 30, 24 hrs, 80% inhibition) [µg/mL] | also measured |
| --- | --- | --- | --- | --- | --- | --- | --- | --- | --- | --- | --- | --- | --- | --- | --- | --- | --- | --- | --- | --- | --- |
| CC1=C[C@H]2C(=O)O[C@H]3C[C@@H](C/C=C(\C)C[C@@H](C)/C=C/C=C4\CO[C@H]([C@@H]1O)[C@@]42O)O[C@@]1(CC[C@H](C)[C@@H](C)O1)C3 [Compound 3, Milbemycin α1] | > 64 | > 64 | 15.1 | 8 | 8 | 2 | 8 | 16 | ≦0.063 | ≦0.063 | >64 | ≦0.03 | > 64 | > 64 | 32 | > 64 | 4 | > 64 | > 64 | > 64 | FEPI MIC with fluconazole, 80% Inh (Aspergillus fumigatus): >64; IC50 [4]: < 0.113 µM; IC50 [6]: 0.473 µM; IC50 [7]: 30.3 µM; MIC of compound in the presence of fluconazole (+) (YEM 51 C. glabrata wt): 16 µg/mL; FEPIhalf (concentration needed to reduce activity of efflux pump by 50%) [9, 12]: 32; MIC of compound in the presence of fluconazole (+) (YEM 53 C. krusei): 0.06 µg/mL; MIC of compound in the presence of fluconazole (+) (YEM 30 C. albicans wt): ≦0.03 |
| CC1=C[C@H]2C(=O)O[C@H]3C[C@@H](C/C=C(\C)C[C@@H](C)/C=C/C=C4\CO[C@H]([C@@H]1O)[C@@]42O)O[C@]1(C3)C[C@H](O)[C@H](C)[C@@H](/C(C)=C/C(C)C)O1 [Compound 15, LL-F2849α (nemedectinα)] | > 64 | > 64 | 6.53 | > 64 | > 64 | 0.25 | 1 | >64 | 0.25 | 0.25 | >64 | 0.5 µg/mL | > 64 | > 64 | > 64 | > 64 | 2 | > 64 | > 64 | > 64 | FEPI MIC with fluconazole, 80% Inh (Aspergillus fumigatus): >64; IC50 [4]: 3.26 µM; IC50 [6]: 1.63 µM; IC50 [11]: > 104 µM; IC50 [7]: > 104 µM; MIC of compound in the presence of fluconazole (+) (YEM 51 C. glabrata wt): 4 µg/mL; FEPIhalf (concentration needed to reduce activity of efflux pump by 50%) [9, 12]: >64; MIC of compound in the presence of fluconazole (+) (YEM 53 C. krusei): > 64 µg/mL; MIC of compound in the presence of fluconazole (+) (YEM 30 C. albicans wt): ≦0.03 |
| LL-F2849α oxime [Compound 18] | > 64 | > 64 |  | > 64 | > 64 |  | >64 | >64 | 0.125 | 0.125 | >64 | > 64 µg/mL | > 64 | > 64 | > 64 | > 64 | > 64 | > 64 | > 64 | > 64 | FEPIhalf (concentration needed to reduce activity of efflux pump by 50%) ([2]; YEM-39 pCgCDR, fluconazole fixed at FLUhalf 4): >64; FEPI MIC with fluconazole, 60% Inh (Aspergillus fumigatus; fluconazole 32 μg/ml (1/4 MIC), 60% inhibition): 8; FEPI MIC with fluconazole, 80% Inh (Aspergillus fumigatus; fluconazole 32 μg/ml (1/4 MIC), 80% inhibition): >64; FEPIhalf (concentration needed to reduce activity of efflux pump by 50%) ([4]; YEM-1 pCDRI, fluconazole fixed at FLUhalf 5.6): >64; FEPIhalf (concentration needed to reduce activity of efflux pump by 50%) ([6]; YEM-37 pCDR2, fluconazole fixed at FLUhalf 1): >64; FEPIhalf (concentration needed to reduce activity of efflux pump by 50%) ([11]; YEM-38 pFLU, fluconazole fixed at FLUhalf 2): >64; FEPIhalf (concentration needed to reduce activity of efflux pump by 50%) ([7]; YEM-2 pBEN, fluconazole fixed at FLUhalf 5.6): >64; MIC of compound in the presence of fluconazole (+) (YEM 51 C. glabrata wt; YEM 51, 1/8 × MIC of fluconazole, 24 hrs, 80% inhibition): > 64 µg/mL; FEPIhalf (concentration needed to reduce activity of efflux pump by 50%) [9]: >64; MIC of compound in the presence of fluconazole (+) (YEM 53 C. krusei; YEM 53, 1/8 × MIC of fluconazole, 24 hrs, 80% inhibition): > 64 µg/mL; MIC of compound in the presence of fluconazole (+) (YEM 30 C. albicans wt; YEM 30, 1/8 × MIC of fluconazole, 24 hrs, 80% inhibition): ≦0.03 |
| CCC(CC)C(=O)OCC1=C[C@H]2C(=O)O[C@H]3C[C@@H](C/C=C(\C)C[C@@H](C)/C=C/C=C4\CO[C@H]([C@@H]1O)[C@@]42O)O[C@@]1(CC[C@H](C)[C@@H](C)O1)C3 [Compound 21, 4a-O-(2-ethyl)butyryl milbemycin α1] | > 64 | > 64 | > 99.6 | > 64 | > 64 | 8 | 1 | 8 | ≦0.063 | ≦0.063 | >64 | 1 µg/mL | > 64 | > 64 | > 64 | > 64 | 8 | > 64 | > 64 | > 64 | FEPI MIC with fluconazole, 80% Inh (Aspergillus fumigatus): 8; IC50 [4]: 1.56 µM; IC50 [6]: 6.22 µM; IC50 [11]: > 99.6 µM; IC50 [7]: > 99.6 µM; MIC of compound in the presence of fluconazole (+) (YEM 51 C. glabrata wt): 8 µg/mL; FEPIhalf (concentration needed to reduce activity of efflux pump by 50%) [9, 12]: >64; MIC of compound in the presence of fluconazole (+) (YEM 53 C. krusei): 8 µg/mL; MIC of compound in the presence of fluconazole (+) (YEM 30 C. albicans wt): 0.125 µg/mL |
| CO[C@@H]1C(C)=C[C@H]2C(=O)O[C@H]3C[C@@H](C/C=C(\C)C[C@@H](C)/C=C/C=C4\CO[C@H]1[C@@]42O)O[C@@]1(CC[C@H](C)[C@@H](C)O1)C3 [Compound 4, Milbemycin α2] | > 64 | > 64 | 7.37 | 64 | > 64 | 1 | 2 | >64 | 0.5 | 0.5 | >64 | ≦0.03 | > 64 | > 64 | > 64 | > 64 | 2 | > 64 | > 64 | > 64 | FEPI MIC with fluconazole, 80% Inh (Aspergillus fumigatus): >64; IC50 [4]: 0.23 µM; IC50 [6]: 0.461 µM; IC50 [11]: > 118 µM; IC50 [7]: > 118 µM; MIC of compound in the presence of fluconazole (+) (YEM 51 C. glabrata wt): 4 µg/mL; FEPIhalf (concentration needed to reduce activity of efflux pump by 50%) [9, 12]: >64; MIC of compound in the presence of fluconazole (+) (YEM 53 C. krusei): 8 µg/mL; MIC of compound in the presence of fluconazole (+) (YEM 30 C. albicans wt): ≦0.03 |
